Reference: ChEMBL document CHEMBL2040781, “Design, synthesis, and biological evaluation of chromone-based p38 MAP kinase inhibitors” (J Med Chem, 2011)
The source made the active and inactive calls. The rule behind the calls is not given here.

Experiments:
[1] = target: Tyrosine-protein kinase Lyn (Homo sapiens) (UniProt P07948); experiment: Inhibition of human Lyn assessed as remaining activity at 0.8 uM after 40 mins by scintillation counting
[2] = target: Inhibitor of nuclear factor kappa-B kinase subunit alpha (Homo sapiens) (UniProt O15111); experiment: Inhibition of human IKKalpha assessed as remaining activity at 0.8 uM after 40 mins by scintillation counting
MCF7 = experiment: Antiproliferative activity against human MCF7 cells at 1 uM after 4 hrs by prestoblue cell viability assay; type: functional, cell-based
[3] = target: CDK6/cyclin D3 (Homo sapiens) (UniProt P30281+Q00534); experiment: Inhibition of human CDK6/cyclinD3 assessed as remaining activity at 0.8 uM after 40 mins by scintillation counting; type: protein-complex assay
[4] = target: Insulin-like growth factor 1 receptor (Homo sapiens) (UniProt P08069); experiment: Inhibition of human IGF-1R assessed as remaining activity at 0.8 uM after 40 mins by scintillation counting
Sequence of Insulin-like growth factor 1 receptor (Homo sapiens) (P08069 31-736 limits assumed): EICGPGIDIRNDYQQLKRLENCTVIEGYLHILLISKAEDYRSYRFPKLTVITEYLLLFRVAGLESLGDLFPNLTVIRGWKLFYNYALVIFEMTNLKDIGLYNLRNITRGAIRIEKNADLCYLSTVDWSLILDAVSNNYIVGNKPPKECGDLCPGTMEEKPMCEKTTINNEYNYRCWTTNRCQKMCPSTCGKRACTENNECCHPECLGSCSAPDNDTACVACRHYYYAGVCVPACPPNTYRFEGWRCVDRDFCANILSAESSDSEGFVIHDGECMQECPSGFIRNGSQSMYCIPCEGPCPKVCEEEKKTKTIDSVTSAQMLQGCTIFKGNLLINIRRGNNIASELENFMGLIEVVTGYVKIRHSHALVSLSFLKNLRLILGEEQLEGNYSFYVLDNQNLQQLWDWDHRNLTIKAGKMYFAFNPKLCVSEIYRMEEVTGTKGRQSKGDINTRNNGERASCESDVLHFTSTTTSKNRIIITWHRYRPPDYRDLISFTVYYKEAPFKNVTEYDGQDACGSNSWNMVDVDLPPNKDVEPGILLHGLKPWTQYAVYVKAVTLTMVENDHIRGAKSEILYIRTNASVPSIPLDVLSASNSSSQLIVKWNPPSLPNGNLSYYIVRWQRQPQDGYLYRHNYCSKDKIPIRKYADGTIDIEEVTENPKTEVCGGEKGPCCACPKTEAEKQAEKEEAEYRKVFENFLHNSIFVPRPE
Sequence of Insulin-like growth factor 1 receptor (Homo sapiens) (P08069 741-1367 limits assumed): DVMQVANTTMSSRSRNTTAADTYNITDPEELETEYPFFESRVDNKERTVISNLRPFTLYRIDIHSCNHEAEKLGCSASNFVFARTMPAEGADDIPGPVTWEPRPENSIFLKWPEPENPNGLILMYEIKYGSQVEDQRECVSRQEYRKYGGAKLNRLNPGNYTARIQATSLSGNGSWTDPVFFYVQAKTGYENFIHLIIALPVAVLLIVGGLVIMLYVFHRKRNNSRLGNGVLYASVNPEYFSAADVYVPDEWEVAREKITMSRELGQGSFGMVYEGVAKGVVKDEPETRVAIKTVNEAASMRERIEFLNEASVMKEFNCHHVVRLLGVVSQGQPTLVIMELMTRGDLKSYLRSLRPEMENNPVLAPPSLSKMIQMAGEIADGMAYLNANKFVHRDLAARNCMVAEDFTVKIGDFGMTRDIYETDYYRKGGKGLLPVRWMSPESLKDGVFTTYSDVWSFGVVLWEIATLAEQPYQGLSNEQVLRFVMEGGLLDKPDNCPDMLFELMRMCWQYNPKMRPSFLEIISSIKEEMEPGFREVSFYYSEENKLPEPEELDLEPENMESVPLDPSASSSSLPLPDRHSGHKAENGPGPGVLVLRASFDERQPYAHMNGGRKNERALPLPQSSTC

[5] = target: Mitogen-activated protein kinase kinase kinase 5 (Homo sapiens) (UniProt Q99683); experiment: Inhibition of human ASK1 assessed as remaining activity at 0.8 uM after 40 mins by scintillation counting
[6] = target: Eukaryotic elongation factor 2 kinase (Homo sapiens) (UniProt O00418); experiment: Inhibition of human eEF-2K assessed as remaining activity at 0.8 uM after 40 mins by scintillation counting
[7] = target: Casein kinase II subunit alpha' (Homo sapiens) (UniProt P19784); experiment: Inhibition of human CK2alpha2 assessed as remaining activity at 0.8 uM after 40 mins by scintillation counting
Sequence of Casein kinase II subunit alpha' (Homo sapiens) (P19784 whole entry, looked up): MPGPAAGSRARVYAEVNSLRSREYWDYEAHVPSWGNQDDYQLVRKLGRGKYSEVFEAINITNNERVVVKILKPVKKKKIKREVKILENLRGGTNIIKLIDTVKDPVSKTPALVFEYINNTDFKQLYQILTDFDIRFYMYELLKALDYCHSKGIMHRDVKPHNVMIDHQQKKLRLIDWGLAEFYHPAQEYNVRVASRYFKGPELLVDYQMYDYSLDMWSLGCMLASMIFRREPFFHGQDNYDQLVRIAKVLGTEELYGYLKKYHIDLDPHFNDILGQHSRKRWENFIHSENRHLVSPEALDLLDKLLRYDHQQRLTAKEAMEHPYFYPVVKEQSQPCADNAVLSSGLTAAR

[8] = target: Serine/threonine-protein kinase pim-1 (Homo sapiens) (UniProt P11309); experiment: Inhibition of human Pim-1 assessed as remaining activity at 0.8 uM after 40 mins by scintillation counting
[9] = target: Mitogen-activated protein kinase 9 (Homo sapiens) (UniProt P45984); experiment: Inhibition of human JNK2alpha2 assessed as remaining activity at 0.8 uM after 40 mins by scintillation counting
[10] = target: Protein kinase C theta type (Homo sapiens) (UniProt Q04759); experiment: Inhibition of human PKCtheta assessed as remaining activity at 0.8 uM after 40 mins by scintillation counting
[11] = target: MAP kinase-interacting serine/threonine-protein kinase 2 (Homo sapiens) (UniProt Q9HBH9); experiment: Inhibition of human Mnk2 assessed as remaining activity at 0.8 uM after 40 mins by scintillation counting
[12] = target: Glycogen synthase kinase-3 beta (Homo sapiens) (UniProt P49841); experiment: Inhibition of human GSK3beta assessed as remaining activity at 0.8 uM after 40 mins by scintillation counting
[13] = target: Protein kinase C alpha type (Homo sapiens) (UniProt P17252); experiment: Inhibition of human PKCalpha assessed as remaining activity at 0.8 uM after 40 mins by scintillation counting
[14] = target: Cyclin-dependent kinase 1/cyclin B1 (Homo sapiens) (UniProt P06493+P14635); experiment: Inhibition of human CDK1/cyclinB assessed as remaining activity at 0.8 uM after 40 mins by scintillation counting; type: protein-complex assay
Sequence of Cyclin-dependent kinase 1/cyclin B1 (Homo sapiens) (P06493 whole entry, looked up): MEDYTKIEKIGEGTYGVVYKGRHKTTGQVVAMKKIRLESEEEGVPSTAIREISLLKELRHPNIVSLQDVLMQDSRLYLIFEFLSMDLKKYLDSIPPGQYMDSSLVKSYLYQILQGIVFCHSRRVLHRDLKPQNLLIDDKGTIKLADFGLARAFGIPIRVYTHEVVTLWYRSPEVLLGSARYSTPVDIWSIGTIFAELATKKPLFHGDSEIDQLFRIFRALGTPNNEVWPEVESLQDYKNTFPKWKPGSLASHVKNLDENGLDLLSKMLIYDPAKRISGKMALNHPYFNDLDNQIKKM
Sequence of Cyclin-dependent kinase 1/cyclin B1 (Homo sapiens) (P14635 whole entry, looked up): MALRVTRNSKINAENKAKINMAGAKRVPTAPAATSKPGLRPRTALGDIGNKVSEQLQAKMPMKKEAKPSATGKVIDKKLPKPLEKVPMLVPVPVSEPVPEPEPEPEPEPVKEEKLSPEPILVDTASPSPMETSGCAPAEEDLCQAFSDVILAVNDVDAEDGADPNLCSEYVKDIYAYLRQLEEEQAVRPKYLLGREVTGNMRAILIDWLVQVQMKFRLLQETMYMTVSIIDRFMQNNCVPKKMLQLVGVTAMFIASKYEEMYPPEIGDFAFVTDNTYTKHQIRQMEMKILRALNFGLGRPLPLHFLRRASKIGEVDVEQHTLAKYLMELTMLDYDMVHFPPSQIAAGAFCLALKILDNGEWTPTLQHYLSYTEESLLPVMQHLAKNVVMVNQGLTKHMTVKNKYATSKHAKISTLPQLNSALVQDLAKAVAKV

[15] = target: MAP kinase-activated protein kinase 2 (Homo sapiens) (UniProt P49137); experiment: Inhibition of human MAPKAP-K2 assessed as remaining activity at 0.8 uM after 40 mins by scintillation counting
[16] = target: Ephrin type-B receptor 4 (Homo sapiens) (UniProt P54760); experiment: Inhibition of human EphB4 assessed as remaining activity at 0.8 uM after 40 mins by scintillation counting
[17] = target: Rho-associated protein kinase 1 (Homo sapiens) (UniProt Q13464); experiment: Inhibition of human ROCK-I assessed as remaining activity at 0.8 uM after 40 mins by scintillation counting
Sequence of Rho-associated protein kinase 1 (Homo sapiens) (Q13464 2-1354 limits assumed): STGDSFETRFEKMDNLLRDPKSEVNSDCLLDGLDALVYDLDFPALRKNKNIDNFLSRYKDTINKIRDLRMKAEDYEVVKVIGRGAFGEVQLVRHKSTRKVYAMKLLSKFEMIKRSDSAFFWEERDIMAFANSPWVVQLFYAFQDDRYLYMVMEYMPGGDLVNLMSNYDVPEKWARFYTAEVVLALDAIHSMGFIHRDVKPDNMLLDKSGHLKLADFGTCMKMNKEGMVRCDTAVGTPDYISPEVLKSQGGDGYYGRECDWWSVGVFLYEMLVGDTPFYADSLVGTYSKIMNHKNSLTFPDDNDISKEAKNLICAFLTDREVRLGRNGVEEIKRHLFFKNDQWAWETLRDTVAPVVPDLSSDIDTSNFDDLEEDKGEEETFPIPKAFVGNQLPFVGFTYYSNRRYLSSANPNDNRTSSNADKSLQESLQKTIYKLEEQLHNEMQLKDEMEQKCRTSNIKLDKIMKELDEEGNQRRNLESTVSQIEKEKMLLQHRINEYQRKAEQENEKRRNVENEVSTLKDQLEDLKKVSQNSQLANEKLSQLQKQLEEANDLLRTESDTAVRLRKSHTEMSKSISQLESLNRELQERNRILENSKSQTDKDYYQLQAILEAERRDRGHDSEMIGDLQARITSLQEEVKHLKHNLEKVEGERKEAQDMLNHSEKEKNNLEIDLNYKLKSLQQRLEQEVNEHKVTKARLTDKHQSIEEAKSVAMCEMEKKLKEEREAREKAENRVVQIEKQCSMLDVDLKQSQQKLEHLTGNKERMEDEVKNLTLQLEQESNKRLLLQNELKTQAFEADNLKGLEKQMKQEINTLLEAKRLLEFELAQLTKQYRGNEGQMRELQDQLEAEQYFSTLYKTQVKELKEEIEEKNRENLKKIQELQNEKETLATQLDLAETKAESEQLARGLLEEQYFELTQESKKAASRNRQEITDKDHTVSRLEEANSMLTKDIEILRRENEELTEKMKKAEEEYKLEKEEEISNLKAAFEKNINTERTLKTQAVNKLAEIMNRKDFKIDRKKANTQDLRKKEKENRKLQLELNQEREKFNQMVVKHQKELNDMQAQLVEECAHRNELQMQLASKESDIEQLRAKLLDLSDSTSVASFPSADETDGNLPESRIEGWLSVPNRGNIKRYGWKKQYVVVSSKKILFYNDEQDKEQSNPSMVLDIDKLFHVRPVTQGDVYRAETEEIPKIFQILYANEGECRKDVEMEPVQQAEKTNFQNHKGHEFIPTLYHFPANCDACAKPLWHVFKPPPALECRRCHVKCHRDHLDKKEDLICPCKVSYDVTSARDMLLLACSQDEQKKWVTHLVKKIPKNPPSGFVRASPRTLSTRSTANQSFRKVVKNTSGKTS

MDA-MB-436 = experiment: Potentiation of doxorubicin-mediated cytotoxicity in p53-deficient human MDA-MB-436 cells at 1 uM after 4 hrs by prestoblue cell viability assay; type: functional, cell-based
[18] = target: SRSF protein kinase 1 (Homo sapiens) (UniProt Q96SB4); experiment: Inhibition of human SRPK1 assessed as remaining activity at 0.8 uM after 40 mins by scintillation counting
[19] = target: Serine/threonine-protein kinase Chk1 (Homo sapiens) (UniProt O14757); experiment: Inhibition of human CHK1 assessed as remaining activity at 0.8 uM after 40 mins by scintillation counting
[20] = target: Ribosomal protein S6 kinase alpha-1 (Homo sapiens) (UniProt Q15418); experiment: Inhibition of human Rsk1 assessed as remaining activity at 0.8 uM after 40 mins by scintillation counting
[21] = target: Mitogen-activated protein kinase 1 (Homo sapiens) (UniProt P28482); experiment: Inhibition of human MAPK1 assessed as remaining activity at 0.8 uM after 40 mins by scintillation counting
[22] = target: Mitogen-activated protein kinase 11 (Homo sapiens) (UniProt Q15759); experiment: Inhibition of human SAPK2b assessed as remaining activity at 0.8 uM after 40 mins by scintillation counting
Sequence of Mitogen-activated protein kinase 11 (Homo sapiens) (Q15759 whole entry): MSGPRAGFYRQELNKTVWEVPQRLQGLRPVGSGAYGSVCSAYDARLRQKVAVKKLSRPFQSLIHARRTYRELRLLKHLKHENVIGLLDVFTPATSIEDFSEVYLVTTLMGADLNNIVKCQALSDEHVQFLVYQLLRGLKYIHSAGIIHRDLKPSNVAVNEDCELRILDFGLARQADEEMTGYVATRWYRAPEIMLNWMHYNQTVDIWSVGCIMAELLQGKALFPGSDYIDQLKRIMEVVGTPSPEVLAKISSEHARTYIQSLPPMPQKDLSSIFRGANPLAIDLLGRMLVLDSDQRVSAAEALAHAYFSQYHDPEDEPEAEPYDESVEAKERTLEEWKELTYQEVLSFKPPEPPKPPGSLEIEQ

[23] = target: CDK9/cyclin T1 (Homo sapiens) (UniProt O60563+P50750); experiment: Inhibition of human CDK9/cyclin T1 assessed as remaining activity at 0.8 uM after 40 mins by scintillation counting; type: protein-complex assay
Homo sapiens = organism: Homo sapiens; experiment: Inhibition of human PI3K assessed as remaining activity at 0.8 uM after 40 mins by scintillation counting
[24] = target: Epidermal growth factor receptor (Homo sapiens) (UniProt P00533); experiment: Inhibition of human EGFR assessed as remaining activity at 0.8 uM after 40 mins by scintillation counting
[25] = target: Cyclin-dependent kinase 2/cyclin A (Homo sapiens) (UniProt P24941+P20248+P78396); experiment: Inhibition of human CDK2/cyclinA assessed as remaining activity at 0.8 uM after 40 mins by scintillation counting; type: protein-complex assay
[26] = target: Mitogen-activated protein kinase kinase kinase 9 (Homo sapiens) (UniProt P80192); experiment: Inhibition of human MLK1 assessed as remaining activity at 0.8 uM after 40 mins by scintillation counting
[27] = target: Mitogen-activated protein kinase 14 (Homo sapiens, UniProt Q16539); experiment: Inhibition of human SAPK2a assessed as remaining activity at 0.8 uM after 40 mins by scintillation counting
[28] = target: MAP kinase-activated protein kinase 5 (Homo sapiens) (UniProt Q8IW41); experiment: Inhibition of human PRAK assessed as remaining activity at 0.8 uM after 40 mins by scintillation counting
[29] = target: Mitogen-activated protein kinase 13 (Homo sapiens) (UniProt O15264); experiment: Inhibition of human SAPK4 assessed as remaining activity at 0.8 uM after 40 mins by scintillation counting
Sequence of Mitogen-activated protein kinase 13 (Homo sapiens) (O15264 whole entry): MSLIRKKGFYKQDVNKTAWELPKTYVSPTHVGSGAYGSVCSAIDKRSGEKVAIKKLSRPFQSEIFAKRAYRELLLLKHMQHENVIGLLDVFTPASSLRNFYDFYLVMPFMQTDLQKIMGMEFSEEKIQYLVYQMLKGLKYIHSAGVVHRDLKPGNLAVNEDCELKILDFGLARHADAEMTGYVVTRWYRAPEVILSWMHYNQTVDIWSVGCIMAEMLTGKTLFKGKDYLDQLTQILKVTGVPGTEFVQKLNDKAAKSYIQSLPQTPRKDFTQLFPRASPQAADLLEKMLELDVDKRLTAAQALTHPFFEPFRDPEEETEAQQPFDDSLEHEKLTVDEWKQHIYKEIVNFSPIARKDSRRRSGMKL

[30] = target: Calcium/calmodulin-dependent protein kinase type 1 (Homo sapiens) (UniProt Q14012); experiment: Inhibition of human CaMKI assessed as remaining activity at 0.8 uM after 40 mins by scintillation counting
[31] = target: Vascular endothelial growth factor receptor 2 (Homo sapiens) (UniProt P35968); experiment: Inhibition of human KDR assessed as remaining activity at 0.8 uM after 40 mins by scintillation counting
[32] = target: Serine/threonine-protein kinase PAK 2 (Homo sapiens) (UniProt Q13177); experiment: Inhibition of human PAK2 assessed as remaining activity at 0.8 uM after 40 mins by scintillation counting

Sequence of Tyrosine-protein kinase Lyn (Homo sapiens) (P07948 2-512 limits assumed): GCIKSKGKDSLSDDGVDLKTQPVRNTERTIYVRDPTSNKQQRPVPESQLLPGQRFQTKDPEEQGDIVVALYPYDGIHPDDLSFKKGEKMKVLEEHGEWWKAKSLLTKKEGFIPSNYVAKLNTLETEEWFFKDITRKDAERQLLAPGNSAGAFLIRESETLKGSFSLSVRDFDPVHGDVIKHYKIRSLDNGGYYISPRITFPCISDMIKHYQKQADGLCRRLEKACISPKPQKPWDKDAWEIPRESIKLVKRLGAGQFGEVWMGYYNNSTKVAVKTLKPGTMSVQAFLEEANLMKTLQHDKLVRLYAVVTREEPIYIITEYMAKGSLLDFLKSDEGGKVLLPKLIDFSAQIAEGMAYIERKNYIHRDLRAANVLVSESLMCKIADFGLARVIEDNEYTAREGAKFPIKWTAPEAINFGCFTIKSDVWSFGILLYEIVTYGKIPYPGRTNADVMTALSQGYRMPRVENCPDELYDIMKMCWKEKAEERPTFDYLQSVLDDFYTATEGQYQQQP

Row | Activity [1] [%] | Activity [2] [%] | Activity [3] [%] | Activity [4] [%] | Activity [5] [%] | Activity [6] [%] | Activity [7] [%] | Activity [8] [%] | Activity [9] [%] | Activity [10] [%] | Activity [11] [%] | Activity [12] [%] | Activity [13] [%] | Activity [14] [%] | Activity [15] [%] | Activity [16] [%] | Activity [17] [%] | Activity [18] [%] | SMILES | Activity (MCF7) | Activity (MDA-MB-436) | further results
1 | 101 | 106 | 100 | 94 | 105 | 100 | 105 | 100 | 58 | 95 | 96 | 132 | 96 | 95 | 104 | 97 | 94 | 109 | CC(C)Nc1cc(-c2oc3ccccc3c(=O)c2-c2ccc(F)cc2)ccn1 | inactive | inactive | Activity [19]: 98%; Activity [20]: 104%; Activity [21]: 82%; Activity [22]: -3%; Activity [23]: 96%; Activity (Homo sapiens): 100%; Activity [24]: 106%; Activity [25]: 95%; Activity [26]: 95%; Activity [27]: -3%; Activity [28]: 72%; Activity [29]: 104%; Activity [30]: 94%; Activity [31]: 98%; Activity [32]: 106%
2 | 98 | 100 | 99 | 100 | 102 | 101 | 104 | 97 | 71 | 102 | 103 | 124 | 102 | 93 | 99 | 98 | 106 | 116 | O=c1c(-c2ccc(F)cc2)c(-c2ccnc(NC3CCCCC3)c2)oc2ccccc12 | inactive | inactive | Activity [19]: 104%; Activity [20]: 104%; Activity [21]: 87%; Activity [22]: 9%; Activity [23]: 93%; Activity (Homo sapiens): 100%; Activity [24]: 114%; Activity [25]: 101%; Activity [26]: 101%; Activity [27]: -1%; Activity [28]: 66%; Activity [29]: 112%; Activity [30]: 96%; Activity [31]: 101%; Activity [32]: 104%
